# Values quoted from earlier work as cited in US6004792A, “Human lysophospholipase” (Incyte Pharmaceuticals, Inc., priority 1998, dated 1999).
# Molecular target: T1, monomeric 24 kD lysophospholipase (LPL) from rat liver (GI 1552244; SEQ ID NO:3) (Rattus norvegicus, UniProt P70470)
# T1 construct: isolated a monomeric, 24 kD LPL from rat liver; host or cells: rat liver (enzyme isolated from tissue, Sugimoto et al. 1996)
# Settings: substrate 1-palmitoyl-glycero-3-phosphocholine
# T1 sequence (P70470 whole entry): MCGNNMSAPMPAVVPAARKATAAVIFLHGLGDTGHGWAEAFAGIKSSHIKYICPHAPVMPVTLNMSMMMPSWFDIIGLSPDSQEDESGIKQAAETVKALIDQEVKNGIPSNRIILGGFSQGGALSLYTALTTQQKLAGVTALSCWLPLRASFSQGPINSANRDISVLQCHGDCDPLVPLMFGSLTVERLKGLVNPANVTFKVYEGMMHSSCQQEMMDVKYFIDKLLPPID
smiles,measurement,value
CCCCCCCCCCCCCCCC(=O)OCC(O)COP(=O)([O-])OCC[N+](C)(C)C (stereo not shown) [1-palmitoyl-glycero-3-phosphocholine],Vmax,1.55 µM/min/mg
